Test results from patent publication US7442802B2, “Cyclooxygenase-2 selective inhibitors, compositions and methods of use” (NitroMed, Inc., priority 2002, dated 2008).

Key:
COX-2 = target: T1, COX-2 (Homo sapiens, UniProt P35354); assay: Human COX-2 enzyme activity in human whole blood (LPS-induced, thromboxane B2 EIA); type: cell-based; conditions: human whole blood, LPS induction; for inhibition at 1 µM: read-out: COX-2 Inhibition (% at 1 μM); for inhibition at 10 µM: read-out: COX-2 Inhibition (% at 10 μM)
T1 construct: To induce COX-2, lipopolysaccharide (LPS) from E. coli; endogenous in cells; host or cells: heparinised human whole blood from donors, with COX-2 induced by E. coli LPS
T1 sequence (P35354 18-604): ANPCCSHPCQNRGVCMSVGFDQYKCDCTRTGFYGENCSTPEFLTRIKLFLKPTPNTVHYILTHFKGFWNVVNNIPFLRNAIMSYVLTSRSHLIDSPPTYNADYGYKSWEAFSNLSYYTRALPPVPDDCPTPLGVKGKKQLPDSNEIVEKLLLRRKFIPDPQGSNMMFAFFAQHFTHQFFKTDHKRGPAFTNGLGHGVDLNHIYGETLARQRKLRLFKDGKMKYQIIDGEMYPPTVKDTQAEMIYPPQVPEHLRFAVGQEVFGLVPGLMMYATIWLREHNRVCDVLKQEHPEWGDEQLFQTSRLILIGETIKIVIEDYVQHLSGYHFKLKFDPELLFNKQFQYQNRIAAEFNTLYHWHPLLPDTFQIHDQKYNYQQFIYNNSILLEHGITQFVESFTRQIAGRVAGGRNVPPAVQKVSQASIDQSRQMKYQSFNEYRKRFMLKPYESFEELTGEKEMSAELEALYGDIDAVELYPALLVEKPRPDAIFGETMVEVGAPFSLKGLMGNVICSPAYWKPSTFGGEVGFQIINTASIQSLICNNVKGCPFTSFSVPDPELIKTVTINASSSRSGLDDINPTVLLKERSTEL
Procedure: (§1) The blood was transported to the laboratory on ice packs and used within 1.5 hours of collection. Upon receipt in the laboratory, the blood was allowed to come to room temperature for 15 minutes prior to distribution in 1 mL aliquots per well of 24 well tissue culture plates. […] Test compounds were dissolved in DMSO, at 1000 fold the final desired concentration, and further diluted, as indicated, in DMSO. One μL of each dilution of the test compound was added per well, in duplicate wells; wells not receiving test compound (e.g., basal, background or control wells) received 1 μL DMSO. […] Louis, Mo., Catalogue No. […] Louis, Mo., Catalogue No. […] (Again, basal, background or control wells not stimulated with A23187 received 1 μL of DMSO.) At 5 hours after the addition of the test compound, all incubations were terminated by placement on ice and the addition of 2 mM EGTA (100 μL of 20 mM EGTA, tetrasodium, in PBS (phosphate buffered saline) without Ca^++ and Mg^++, pH 7.2)). […] One hundred μL of plasma was removed from each blood sample and added to 1 mL of methanol in new 15 mL polypropylene centrifuge tubes, vortexed, and stored overnight at -20° C. […] The samples were assayed for thromboxane B2 using EIA kits supplied by Cayman Chemical Co. […] The % inhibition for COX-1 and COX-2 enzyme activity in human whole blood by the test compounds, at the indicated concentrations, are given in Table 1.

COX-1 = target: T2, COX-1 (Homo sapiens, UniProt P23219); assay: Human COX-1 enzyme activity in human whole blood (A23187-stimulated, thromboxane B2 EIA); type: cell-based; conditions: 100 μM, human whole blood, A23187 stimulation; for inhibition at 100 µM: read-out: COX-1 Inhibition (% at 100 μM)
T2 construct: endogenous in cells; host or cells: heparinised human whole blood from donors, stimulated with the calcium ionophore A23187
T2 sequence (P23219 24-599): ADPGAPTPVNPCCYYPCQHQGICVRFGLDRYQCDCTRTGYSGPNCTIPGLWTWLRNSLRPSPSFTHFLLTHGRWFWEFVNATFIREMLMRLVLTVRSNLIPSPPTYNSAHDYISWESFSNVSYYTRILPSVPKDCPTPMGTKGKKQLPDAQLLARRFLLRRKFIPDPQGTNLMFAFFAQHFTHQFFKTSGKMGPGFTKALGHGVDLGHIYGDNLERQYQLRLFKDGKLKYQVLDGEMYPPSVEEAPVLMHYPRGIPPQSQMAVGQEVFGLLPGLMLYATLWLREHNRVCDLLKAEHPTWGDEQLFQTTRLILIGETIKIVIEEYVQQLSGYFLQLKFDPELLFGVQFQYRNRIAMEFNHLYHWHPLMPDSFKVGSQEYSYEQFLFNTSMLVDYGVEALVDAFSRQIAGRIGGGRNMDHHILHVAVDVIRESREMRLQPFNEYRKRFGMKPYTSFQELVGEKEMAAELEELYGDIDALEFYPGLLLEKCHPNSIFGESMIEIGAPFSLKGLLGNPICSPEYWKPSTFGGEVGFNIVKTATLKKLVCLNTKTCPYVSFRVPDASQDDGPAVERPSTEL
Procedure: as §1

NS(=O)(=O)c1ccc(-c2c(-c3ccccc3)noc2COCCCO)cc1 [Example 26a]
COX-2 Inhibition (% at 1 μM) (COX-2): 50%
COX-2 Inhibition (% at 10 μM) (COX-2): 85%
COX-1 Inhibition (% at 100 μM) (COX-1): 25%

CS(=O)(=O)c1ccc(-c2cc(COCCO[N+](=O)[O-])nn2C2CCCCC2)cc1 [Example 15e, 1-(1-Cyclohexyl-3-((2-(nitrooxy)ethoxy)methyl)pyrazol-5-yl)-4-(methylsulfonyl)benzene]
inhibition at 1 µM (COX-2): 35%
inhibition at 10 µM (COX-2): 75%
inhibition at 100 µM (COX-1): 35%

CS(=O)(=O)c1ccc(-c2cc(/C=C\CCO)nn2-c2ccccc2)cc1 [Example 11d]
COX-2 Inhibition (% at 1 μM) (COX-2): 0%
COX-2 Inhibition (% at 10 μM) (COX-2): 30%
COX-1 Inhibition (% at 100 μM) (COX-1): 25%

NS(=O)(=O)c1ccc(-c2c(-c3ccccc3)noc2COCCS(=O)(=O)CCO)cc1 [Example 37b, 4-(5-((2-((2-Hydroxyethyl)sulfonyl)ethoxy)methyl)-3-phenylisoxazol-4-yl)benzenesulfonamide]
inhibition at 1 µM (COX-2): 35%
inhibition at 10 µM (COX-2): 90%
inhibition at 100 µM (COX-1): 50%

CS(=O)(=O)c1ccc(-c2cc(COCCCO[N+](=O)[O-])nn2C2CCCCC2)cc1 [Example 16c, 1-(1-Cyclohexyl-3-((3-(nitrooxy)propoxy)methyl)pyrazol-5-yl)-4-(methylsulfonyl)benzene]
inhibition at 1 µM (COX-2): 45%
inhibition at 10 µM (COX-2): 85%
inhibition at 100 µM (COX-1): 10%

CS(=O)(=O)c1ccc(-c2cc(C(=O)CO[N+](=O)[O-])nn2-c2ccccn2)cc1 [Example 35c, 1-(5-(4-(Methysulfonyl)phenyl)-1-(2-pyridyl)pyrazol-3-yl)-2-(nitrooxy)ethan-1-one]
COX-2 Inhibition (% at 1 μM) (COX-2): 25%
COX-2 Inhibition (% at 10 μM) (COX-2): 30%
COX-1 Inhibition (% at 100 μM) (COX-1): 0%

4-(5-(4-Chlorophenyl)-3-((3-hydroxypropoxy)methyl)pyrazolyl)-benzenesulfonamide [Example 36b]
COX-2 Inhibition (% at 1 μM) (COX-2): 30%
COX-2 Inhibition (% at 10 μM) (COX-2): 55%
COX-1 Inhibition (% at 100 μM) (COX-1): 30%

CS(=O)(=O)c1ccc(-c2cc(COc3cccc(CO)c3)nn2C2CCCCC2)cc1 [Example 17b, 1-(1-Cyclohexyl-3-((3-(hydroxymethyl)phenoxy)methyl)pyrazol-5-yl)-4-(methylsulfonyl)benzene]
inhibition at 1 µM (COX-2): 135%
inhibition at 10 µM (COX-2): 100%
inhibition at 100 µM (COX-1): 80%

Cc1ccc(-n2nc(COCCCO)cc2-c2ccc(S(C)(=O)=O)cc2)cc1 [Example 8d, 1-(3-((3-Hydroxypropoxy)methyl)-1-(4-methylphenyl)pyrazol-5-yl)-4-(methylsulfonyl)benzene]
inhibition at 1 µM (COX-2): 20%
inhibition at 10 µM (COX-2): 90%
inhibition at 100 µM (COX-1): 70%

4-(5-(4-Chlorophenyl)-3-((3-hydroxypropoxy)methyl)pyrazolyl)benzenesulfonamide [Example 28a]
COX-2 Inhibition (% at 1 μM) (COX-2): 30%
COX-2 Inhibition (% at 10 μM) (COX-2): 55%
COX-1 Inhibition (% at 100 μM) (COX-1): 30%

CS(=O)(=O)c1ccc(-c2cc(COCCO)nn2C2CCCCC2)cc1 [Example 15d, 1-(1-Cyclohexyl-3-((2-hydroxyethoxy)methyl)pyrazol-5-yl)-4-(methylsulfonyl)benzene]
inhibition at 1 µM (COX-2): 0%
inhibition at 10 µM (COX-2): 40%
inhibition at 100 µM (COX-1): 10%

NS(=O)(=O)c1ccc(-c2c(-c3ccccc3)noc2COCC(F)(F)CO[N+](=O)[O-])cc1 [Example 32d, 4-(5-((2,2-Difuoro-3-(nitrooxy)propoxy)methyl)-3-phenylisoxazol-4-yl)benzenesulfoamide]
COX-2 Inhibition (% at 1 μM) (COX-2): 20%
COX-2 Inhibition (% at 10 μM) (COX-2): 85%
COX-1 Inhibition (% at 100 μM) (COX-1): 0%

NS(=O)(=O)c1ccc(-c2cc(C(=O)CCCO)nn2C2CCCCC2)cc1 [Example 43g, 4-(1-Cyclohexyl-3-(4-hydroxybutanoyl)pyrazol-5-yl)benzenesulfonamide]
inhibition at 1 µM (COX-2): 0%
inhibition at 10 µM (COX-2): 10%
inhibition at 100 µM (COX-1): 30%

NS(=O)(=O)c1ccc(-c2c(-c3ccccc3)noc2COCC(F)(F)C(F)(F)CO)cc1 [Example 33a]
COX-2 Inhibition (% at 1 μM) (COX-2): 40%
COX-2 Inhibition (% at 10 μM) (COX-2): 100%
COX-1 Inhibition (% at 100 μM) (COX-1): 75%

CC(O)CCOCc1cc(-c2ccc(S(C)(=O)=O)cc2)n(-c2ccccc2)n1 (stereo not drawn) [Example 19b, 1-(3-((3-Hydroxybutoxy)methyl)-1-phenylpyrazol-5-yl)-4-(methylsulfonyl)benzene]
inhibition at 1 µM (COX-2): 20%
inhibition at 10 µM (COX-2): 100%
inhibition at 100 µM (COX-1): 40%

Cc1ccc(-n2nc(COCCCO[N+](=O)[O-])cc2-c2ccc(S(C)(=O)=O)cc2)cc1 [Example 8e, 1-(1-(4-methylphenyl)-3-((3-(nitrooxy)propoxy)methyl)pyrazol-5-yl)-4-(methylsulfonyl)benzene]
inhibition at 1 µM (COX-2): 50%
inhibition at 10 µM (COX-2): 95%
inhibition at 100 µM (COX-1): 90%

CS(=O)(=O)c1ccc(-c2cc(C(=O)CCCO)nn2-c2ccc(Cl)cc2)cc1 [Example 44d, 1-(1-(4-Chlorophenyl)-5-(4-(methylsulfonyl)phenyl)pyrazol-3-yl)-4-hydroxybutan-1-one]
inhibition at 1 µM (COX-2): 30%
inhibition at 10 µM (COX-2): 60%
inhibition at 100 µM (COX-1): 10%

CS(=O)(=O)c1ccc(-c2cc(/C=C\CCO)nn2C2CCCCC2)cc1 [Example 4e, 1-(3-((1Z)-4-(Hydroxy)but-1-enyl)-1-cyclohexylpyrazol-5-yl-4-methylsulfonyl)benzene]
COX-2 Inhibition (% at 1 μM) (COX-2): 30%
COX-2 Inhibition (% at 10 μM) (COX-2): 70%
COX-1 Inhibition (% at 100 μM) (COX-1): 45%

CS(=O)(=O)c1ccc(-c2cc(COc3cccc(CO[N+](=O)[O-])c3)nn2C2CCCCC2)cc1 [Example 17d, 1-(1-Cyclohexyl-3-((3-((nitrooxy)methyl)phenoxy)methyl)pyrazol-5-yl)-4-(methylsulfonyl)benzene]
inhibition at 1 µM (COX-2): 0%
inhibition at 10 µM (COX-2): 25%
inhibition at 100 µM (COX-1): 25%

COc1ccc(-n2nc(COCCCO)cc2-c2ccc(S(C)(=O)=O)cc2)cc1 [Example 10d, 1-(3-((3-Hydroxypropoxy)methyl)-1-(4-methoxyphenyl)pyrazol-5-yl)-4-(methylsulfonyl)benzene]
inhibition at 1 µM (COX-2): 25%
inhibition at 10 µM (COX-2): 100%
inhibition at 100 µM (COX-1): 100%

CC(CCOCc1cc(-c2ccc(S(C)(=O)=O)cc2)n(-c2ccccc2)n1)O[N+](=O)[O-] (stereo not drawn) [Example 19c, 4-(Methylsulfonyl)-1-(3-((3-(nitrooxy)butoxy)methyl)-1-phenylpyrazol-5-yl)benzene]
inhibition at 1 µM (COX-2): 20%
inhibition at 10 µM (COX-2): 30%
inhibition at 100 µM (COX-1): 35%

CS(=O)(=O)c1ccc(-c2cc(COCCCO)nn2C2CCCCC2)cc1 [Example 16b, 1-(1-Cyclohexyl-3-((3-hydroxypropoxy)methyl)pyrazol-5-yl)-4-(methylsulfonyl)benzene]
inhibition at 1 µM (COX-2): 20%
inhibition at 10 µM (COX-2): 55%
inhibition at 100 µM (COX-1): 10%

Cc1ccc(-n2nc(C(=O)CCCO)cc2-c2ccc(S(C)(=O)=O)cc2)cc1 [Example 12d, 4-Hydroxy-1-(1-(4-methylphenyl)-5-(4-(methylsulfonyl)phenyl)pyrazol-3-yl)butan-1-one]
inhibition at 1 µM (COX-2): 15%
inhibition at 10 µM (COX-2): 45%
inhibition at 100 µM (COX-1): 0%

CS(=O)(=O)c1ccc(-c2cc(COCCCO)nn2-c2ccc(C(F)(F)F)cc2)cc1 [Example 9d, 1-(3-((3-Hydroxypropoxy)methyl)-1-(4-(trifluoromethyl)phenyl)pyrazol-5-yl)-4-(methylsulfonyl)benzene]
inhibition at 1 µM (COX-2): 30%
inhibition at 10 µM (COX-2): 85%
inhibition at 100 µM (COX-1): 40%

CS(=O)(=O)c1ccc(-c2cc(C(F)(F)OCCCO[N+](=O)[O-])nn2-c2ccccc2)cc1 [Example 6f, 1-(3-(Difluoro(3-(nitrooxy)propoxy)methyl)-1-phenylpyrazol-5-yl)-4-(methylsulfonyl)benzene]
inhibition at 1 µM (COX-2): 50%
inhibition at 10 µM (COX-2): 95%
inhibition at 100 µM (COX-1): 80%
